Test results reported in paper PMC3723632, “A Multi-targeted Drug Candidate with Dual Anti-HIV and Anti-HSV Activity” (PLoS Pathogens, 2013).
In brackets after ≈: the same amount, converted by molar mass. Read-outs that look alike come from different tables or passages of the source.

Key:
PBMC = assay: Bio-Plex chemokine assay in PBMC cultures; type: cell-based, human; details: for MIP-1β induced: 24 h
Procedure: Figure 9 Expression of CC-chemokines, CCR5 and chemokine mRNA expression in PBMC cultures after drug treatment. Panel A: Production of CC-chemokines by PBMC and the effects of adefovir, tenofovir, and PMEO-DAPym on the expression of the CCR5 receptor. Freshly isolated PBMCs from four healthy donors were incubated for 24 h with medium only (NC) or with adefovir, tenofovir, or PMEO-DAPym. We collected the supernatants and measured the concentrations of MIP-1α (▪), MIP-1β (▴), and RANTES (•) using a Bioplex system (Bio-Rad, Hercules, CA). Shown are means ± SEM. The cells were also collected, and the expression of the CCR5 receptor (□) was measured with flow cytometry using the PE-labeled CCR5 (clone 2D7) mAb; it is shown as percentage of control (± SEM) from four independent representative experiments. Panel B: Chemokine mRNA expression upon PMEO-DAPym exposure to PBMC. RT-PCR analysis of MIP-1α, MIP-1β, RANTES, and GAPDH (control) expression in PBMC treated with 100-µg/ml PMEO-DAPym for 4 h. Similar results were obtained with PBMC from three different donors. Results from one representative donor are shown.
Freshly isolated PBMC were cultured in the presence of adefovir, tenofovir, and PMEO-DAPym, and culture supernatants were collected after 24 h. We determined the cytokine production profile using the Bio-Plex 200 system (Bio-Rad, Hercules, CA) and a Bio-Plex Human chemokine assay according to the manufacturer's instructions and as described in detail earlier. The assay kit contains beads conjugated with mAbs specific for interferon-inducible protein-10 (IP-10), macrophage inflammatory protein-1α (MIP-α), and MIP-1β, and regulated on activation normal T-cell expressed and secreted (RANTES). For each chemokine, eight standards ranging from approximately 1.5 pg/ml to 32,000 pg/ml were constructed, and the minimum detectable dose was between 1.5 pg/ml and 8 pg/ml. Standard curves and the concentrations of chemokines within samples were generated with the Bio-Plex Manager 4.1 software.

HSV-1 (KOS strain) = assay: Pre-treatment of PHK cell cultures, HSV-1 infection (CPE)
Procedure: The HSV-induced cytopathic effect (CPE) was evaluated in HSV-infected HEL and PHK cultures as described [44], [48].

[1] = tested on: HSV-2 (G and clinical isolates); assay: microbe, parasite or virus in culture; type: cell-based; details: Human alphaherpesvirus 2, HEL
Procedure: (§1) Figure 2 Antiherpetic activity of test compounds in cell culture. Confluent HEL cell cultures were exposed to 100 TCID50 of clinical virus isolates [wild-type HSV-1 (panel A), wild-type HSV-2 (panel B), TK^− HSV-1 (panel C) and TK^− HSV-2 (panel D)] in the presence of drugs at different concentrations and incubated for 3 days at 37°C. […] Data shown are the means of at least two independent experiments.

[2] = tested on: HSV-1 (KOS and clinical isolates); assay: microbe, parasite or virus in culture; type: cell-based; details: Human alphaherpesvirus 1, HEL
Procedure: as §1

HSV-2 (G) [3] = assay: HSV-2 infection of primary monocyte/macrophage (M/M) cultures; type: cell-based; details: for inhibition at 0.0032 µg/mL / inhibition at 0.016 µg/mL / inhibition at 0.08 µg/mL / inhibition at 0.4 µg/mL / inhibition at 2 µg/mL / inhibition at 10 µg/mL / inhibition at 50 µg/mL: Human alphaherpesvirus 2, 144 h, day 6, read-out: Inhibition of viral replication (% to control); for inhibition at 0.0032 µg/mL / inhibition at 0.016 µg/mL / inhibition at 0.08 µg/mL / inhibition at 0.4 µg/mL / inhibition at 2 µg/mL / inhibition at 10 µg/mL / inhibition at 50 µg/mL / inhibition of HSV-2 replication: M/M; for EC50: Human alphaherpesvirus 2, HSV-2 (G), human monocyte/macrophages; for inhibition of HSV-2 replication: 2- to 10-µg/ml
Procedure: We obtained human PBMC from the blood of healthy seronegative donors using Ficoll–Hypaque density gradient centrifugation. The PBMC were resuspended in RPMI 1640 medium supplemented with 20% heat-inactivated serum and then seeded into 48-well plates (1.8×10^6 cells/well). M/M were separated by adherence onto plastic. After 5 days, non-adherent cells were carefully removed by repeated gentle washings with warm medium, and adherent M/M were cultured for an additional 3 days to mature and to form a monolayer. M/M were estimated to be 10^5 cells/well at the time of infection. […]. Similarly, macrophage cultures were treated with the same concentrations of adefovir and tenofovir. Macrophage cultures were then infected with HSV-2 (G) (100 TCID50) in the presence of the compounds. After 2 h of adsorption, the cultures were extensively washed to remove any residual virus particles. Fresh complete medium and compounds, at the established concentrations, were then added to the cultures. Appropriate positive (infected but not treated) and mock-infected negative (uninfected and untreated) M/M controls were run for each experiment as well. All assays were performed in triplicate. […] We determined the amount of infectious virus in the supernatants 5–6 days after infection using the cytopathic effect assay. Tenfold serially diluted supernatants were added to confluent monolayers of Vero cells in 96-well plates (100 µl/well, 6 parallel wells). […] The titers of virus produced were calculated according to the Reed and Muench method and expressed as 50% tissue culture infective dose per mL (TCID50/mL).

HSV-2 (G) [4] = assay: as above; type: cell-based
[5] = HSV-2, average of seven TK-deficient clinical isolates
[6] = HSV-2, average of seven clinical isolates
[7] = HSV-1, average of six TK-deficient clinical isolates
[8] = HSV-1, average of six clinical isolates

Compound | EC50 ([1]; HSV-2 (G)) [mg/L] | EC50 [1, 5] [mg/L] | EC50 [1, 6] [mg/L] | EC50 ([2]; HSV-1 (KOS)) [mg/L] | EC50 [2, 7] [mg/L] | EC50 [2, 8] [mg/L] | Virus production by HSV2-infected macrophages 6 days after infection (CPE reduction) (HSV-2 (G) [3]; 0.0032 µg/ml) | Cytopathicity (CPE) on macrophages 6 days after infection % CPE (HSV-2 (G) [3]; 0.016 µg/ml) [%] | Virus production by HSV2-infected macrophages 6 days after infection (CPE reduction) (HSV-2 (G) [3]; 0.016 µg/ml) | Cytopathicity (CPE) on macrophages 6 days after infection % CPE (HSV-2 (G) [3]; 0.08 µg/ml) [%] | Virus production by HSV2-infected macrophages 6 days after infection (CPE reduction) (HSV-2 (G) [3]; 0.08 µg/ml) | Virus production by HSV2-infected macrophages 6 days after infection (CPE reduction) (HSV-2 (G) [3]; 0.4 µg/ml) | Cytopathicity (CPE) on macrophages 6 days after infection % CPE (HSV-2 (G) [3]; 10 µg/ml) | Virus production by HSV2-infected macrophages 6 days after infection (CPE reduction) (HSV-2 (G) [3]; 10 µg/ml) | Virus production by HSV2-infected macrophages 6 days after infection (CPE reduction) (HSV-2 (G) [3]; 50 µg/ml) | inhibition at 0.0032 µg/mL (HSV-2 (G) [3]; 0.0032 µg/ml) [%] | inhibition at 0.016 µg/mL (HSV-2 (G) [3]; 0.016 µg/ml) [%] | inhibition at 0.08 µg/mL (HSV-2 (G) [3]; 0.08 µg/ml) [%] | inhibition at 0.4 µg/mL (HSV-2 (G) [3]; 0.4 µg/ml) [%] | inhibition at 2 µg/mL (HSV-2 (G) [3]; 2 µg/ml) [%] | also measured
Nc1cc(OCCOCP(=O)(O)O)nc(N)n1 [PMEO-DAPym, 6-phosphonylmethoxyethoxy-2,4-diaminopyrimidine] | 4.4 ± 2.4 (≈ 16.7 µM) | 2.4 ± 0.4 (≈ 9.08 µM) | 2 ± 0.4 (≈ 7.57 µM) | 2.6 ± 1.2 (≈ 9.84 µM) | 2.4 ± 0.6 (≈ 9.08 µM) | 2 ± 0.5 (≈ 7.57 µM) | 1.5×10^4 TCID50/ml | 80 | 1.35×10^4 TCID50/ml | 55 | 7.5×10^3 TCID50/ml | 9.5×10^2 TCID50/ml | 0–5% | No virus | No virus | < 0 | 3.5 | 46 | 93 | 98 to 100 | effect on IP-10 levels (PBMC): did not affect IP-10 levels; MIP-1β induced (PBMC; 20 µg/ml): 7.5 ng/mL; MIP-1β induced (PBMC; 100 µg/ml): 20 ng/mL; MIP-1β induced (PBMC; 500 µg/ml): 27 ng/mL; EC50 (HSV-1 (KOS strain); Human alphaherpesvirus 1, read-out: 50% effective concentration, PHK, HSV-1 KOS, +2 h to 72 h (control, drug present whole incubation)): 2.6 ± 0.8 mg/L (≈ 9.84 µM); EC50 (HSV-1 (KOS strain); Human alphaherpesvirus 1, read-out: 50% effective concentration, PHK, HSV-1 KOS, pretreatment −2.5 h to 0 h): 31.6 mg/L (≈ 120 µM); EC50 (HSV-1 (KOS strain); Human alphaherpesvirus 1, read-out: 50% effective concentration, PHK, HSV-1 KOS, pretreatment −6 h to 0 h): 29.6 mg/L (≈ 112 µM); EC50 (HSV-1 (KOS strain); Human alphaherpesvirus 1, read-out: 50% effective concentration, PHK, HSV-1 KOS, pretreatment −18 h to 0 h): 7 ± 0.6 mg/L (≈ 26.5 µM); Virus production by HSV2-infected macrophages 6 days after infection (CPE reduction) (HSV-2 (G) [3]; 2 µg/ml): 2.26×10^2 TCID50/ml; inhibition at 10 µg/mL (HSV-2 (G) [3]; 10 µg/ml): 100%; inhibition at 50 µg/mL (HSV-2 (G) [3]; 50 µg/ml): 100%; EC50 (HSV-2 (G) [3]): 0.09 ± 0.03 mg/L (≈ 0.341 µM); inhibition of HSV-2 replication (HSV-2 (G) [3]): virtually completely inhibited; Cytopathicity (CPE) on macrophages 6 days after infection % CPE (HSV-2 (G) [4]; 0.0032 µg/ml): 85%; Cytopathicity (CPE) on macrophages 6 days after infection % CPE (HSV-2 (G) [4]; 0.4 µg/ml): 35%; Cytopathicity (CPE) on macrophages 6 days after infection % CPE (HSV-2 (G) [4]; 2 µg/ml): 0–15%
C[C@H](Cn1cnc2c(N)ncnc21)OCP(=O)(O)O [Tenofovir, 9-(2-phosphonylmethoxypropyl)adenine] | 122 ± 51 (≈ 425 µM) | 121 ± 15 (≈ 421 µM) | 139 ± 11 (≈ 484 µM) | 105 ± 20 (≈ 366 µM) | 151 ± 19 (≈ 526 µM) | 125 ± 12 (≈ 435 µM) | 1.2×10^4 TCID50/ml | 75 | 1.3×10^4 TCID50/ml | 60 | 9×10^3 TCID50/ml | 1.9×10^3 TCID50/ml | 10% | No virus | No virus | 14 | 7 | 36 | 86 | 98 | production of CC-chemokines (PBMC; even at 500 µg/ml): Neither adefovir nor tenofovir induced notable production of CC-chemokines; inhibition at 10 µg/mL (HSV-2 (G) [3]; 10 µg/ml): 100%; inhibition at 50 µg/mL (HSV-2 (G) [3]; 50 µg/ml): 100%; EC50 (HSV-2 (G) [3]): 0.2 ± 0.06 mg/L (≈ 0.696 µM); inhibition of HSV-2 replication (HSV-2 (G) [3]): virtually completely inhibited; Cytopathicity (CPE) on macrophages 6 days after infection % CPE (HSV-2 (G) [4]; 0.0032 µg/ml): 85%; Cytopathicity (CPE) on macrophages 6 days after infection % CPE (HSV-2 (G) [4]; 0.4 µg/ml): 40%; Cytopathicity (CPE) on macrophages 6 days after infection % CPE (HSV-2 (G) [4]; 2 µg/ml): 30%
